13 molecules from PubChem BioAssay (NCI) can be followed below.

SMILES strings stand for the structures.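 Five concentrations, 48 hours, 96-well plates. The concentration for 50% growth inhibition is given as GI50. At the TGI there is no net growth.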 Where a SMILES comes first, the peptide text is derived from it. [ ]: non-standard residue; d: D form. The star is where a group is joined. dTle = CC(C)(C)[C@@H](N)C(=O)O; 4Abz = Nc1ccc(C(=O)O)cc1; NHOH = ON*

Among the test systems are SK-MEL-5 melanoma; SN12C renal; HCT-116 colon; NCI-H460 lung; HOP-92 NSCLC; UACC-257 melanoma; MCF7 breast; ACHN renal; HL-60(TB) leukemia; CCRF-CEM leukemia.
Test in all cases: NCI tumour cell line growth inhibition, 48 h

For the molecule `CCOC(=O)C1=C(C)N(Cc2ccc(Cl)cc2Cl)C2(O)C=CC(=O)C3=C(O)c4ccccc4C(=O)C312` (stereo unspecified), the GI50 is 7.38 µM in the assay on SK-MEL-5 melanoma; 3.39 µM with SN12C renal; 3.19 µM in the assay on HCT-116 colon; 5.55 µM in the assay on NCI-H460 lung; 1.23 µM in the assay with HOP-92 NSCLC; 10.9 µM with UACC-257 melanoma. Moreover, the GI50 in the assay on MCF7 breast was 2.65 µM; in the assay with ACHN renal, 3.82 µM. Further, the TGI in the assay with SK-MEL-5 melanoma was found to be 23.3 µM; in the assay with SN12C renal it was 15.4 µM; in the assay on HCT-116 colon, 11.6 µM; in the assay with NCI-H460 lung, 43.2 µM; in the assay on HOP-92 NSCLC it was 5.48 µM; in the assay on UACC-257 melanoma, 61.2 µM. The TGI in the assay with MCF7 breast was 40.1 µM; in the assay with ACHN renal, 18.2 µM.
Turning to `N#CC1(C#N)C2C=CC(c3coc4cccc2c34)C1(C#N)C#N` (stereo unspecified), the TGI amounted to 28.8 µM in the assay on SK-MEL-5 melanoma; 23.2 µM in the assay with SN12C renal; 6.08 µM with HCT-116 colon; 3.44 µM in the assay with HL-60(TB) leukemia; 37.4 µM with NCI-H460 lung; 35 µM in the assay on HOP-92 NSCLC. Further, the TGI in the assay with UACC-257 melanoma came to 23.1 µM; in the assay on CCRF-CEM leukemia, 6.71 µM; in the assay on ACHN renal, 17 µM.
Consider `O=C(CCn1[nH]c(=O)c(Cl)c(Cl)c1=O)NNC(=O)C[n+]1ccccc1`, for which the TGI in the assay with SK-MEL-5 melanoma, with SN12C renal, in the assay with HL-60(TB) leukemia, in the assay with NCI-H460 lung, with CCRF-CEM leukemia and in the assay on ACHN renal was greater than 100 µM in each case.
On to `CCOC(=O)c1cnc2c(ccc3ncccc32)c1NCCCN(CC)CC`, for which the TGI in the assay with SK-MEL-5 melanoma was greater than 100 µM; in the assay with HL-60(TB) leukemia, 38.4 µM; in the assay on NCI-H460 lung, greater than 100 µM; in the assay with HOP-92 NSCLC, greater than 100 µM; with UACC-257 melanoma, greater than 100 µM; in the assay on CCRF-CEM leukemia it was greater than 100 µM. This molecule also showed a TGI in the assay with ACHN renal greater than 100 µM.
On to `CCOC(=O)C(CC/C=C\c1ccccc1)N1CCC[C@H]1C(=O)OC` (stereo partly specified), for which the TGI with SK-MEL-5 melanoma, in the assay with SN12C renal, in the assay on HCT-116 colon, in the assay on HL-60(TB) leukemia, in the assay on NCI-H460 lung and with HOP-92 NSCLC was greater than 100 µM each time. In addition, the TGI with UACC-257 melanoma, in the assay on CCRF-CEM leukemia and in the assay on ACHN renal was greater than 100 µM throughout.
With `C[C@@H](NC(=O)[C@H](NC(=O)[C@@H]1CCCN1C(=O)CNC(=O)c1ccc(N)cc1)C(C)(C)C)C(=O)NO` (H-[4Abz]GP[dTle][dA]-{NHOH}), the GI50 is greater than 100 µM with SK-MEL-5 melanoma; greater than 100 µM with SN12C renal; greater than 100 µM in the assay on HCT-116 colon; greater than 100 µM with NCI-H460 lung; 5.76 µM in the assay with HOP-92 NSCLC; greater than 100 µM in the assay on UACC-257 melanoma. In addition, the GI50 in the assay on MCF7 breast and in the assay with ACHN renal was greater than 100 µM each time. Further, the TGI with SK-MEL-5 melanoma, in the assay with SN12C renal, with HCT-116 colon, in the assay on NCI-H460 lung, with HOP-92 NSCLC and in the assay on UACC-257 melanoma was greater than 100 µM each time. Moreover, the TGI in the assay with MCF7 breast and with ACHN renal was greater than 100 µM in each case.
`Nc1ccc(-c2cccs2)cc1NC(=O)c1ccc(CCCC(=O)Nc2ccc(C3CC3N)cc2)cc1` (stereo unspecified): the GI50 was 1.91 µM in the assay on SK-MEL-5 melanoma, 2.54 µM with HL-60(TB) leukemia and 11 µM with HOP-92 NSCLC. The TGI in the assay with SK-MEL-5 melanoma is 6.23 µM; in the assay with HL-60(TB) leukemia it was greater than 100 µM; in the assay with HOP-92 NSCLC, greater than 100 µM.
Regarding `CC(=O)O[C@@]1(C)[C@@H](C)C(=O)O[C@@H]2CCN3CC=C(COC(=O)[C@]1(C)O)[C@H]23`, the TGI in the assay with SK-MEL-5 melanoma, in the assay on HCT-116 colon, with HL-60(TB) leukemia, with NCI-H460 lung, in the assay with HOP-92 NSCLC and in the assay with UACC-257 melanoma was greater than 100 µM in each case. In addition, the TGI in the assay with CCRF-CEM leukemia and in the assay with ACHN renal was greater than 100 µM in each case.
Turning to `CO/N=C(\COc1ccc2oc(-c3ccccc3)cc(=O)c2c1)c1ccc(OC)cc1`, the GI50 in the assay with SK-MEL-5 melanoma is 22.2 µM; in the assay with SN12C renal it was 19.3 µM; in the assay on HCT-116 colon, 16.9 µM; with HL-60(TB) leukemia it was 6.16 µM; in the assay with UACC-257 melanoma, 23.4 µM; in the assay on CCRF-CEM leukemia, 29.7 µM. The GI50 in the assay on ACHN renal was 23.4 µM. In addition, the TGI in the assay with SK-MEL-5 melanoma is 46.7 µM; in the assay with SN12C renal it was 44.7 µM; with HCT-116 colon, 33.8 µM; in the assay with HL-60(TB) leukemia it was greater than 100 µM; in the assay on UACC-257 melanoma, 63.3 µM; in the assay on CCRF-CEM leukemia, 74.8 µM. For the same molecule, the TGI in the assay on ACHN renal was 51.9 µM.
`CCN(CC)C(=S)SCN1C(=O)c2ccccc2S1(=O)=O`: the GI50 was 6.67 µM in the assay on SK-MEL-5 melanoma; 53.7 µM in the assay with SN12C renal; 54.2 µM with HCT-116 colon; 0.928 µM in the assay with NCI-H460 lung; greater than 100 µM with HOP-92 NSCLC; 56.3 µM with UACC-257 melanoma. In addition, the GI50 was 0.562 µM in the assay with MCF7 breast, less than 0.01 µM in the assay on CCRF-CEM leukemia and 64.6 µM in the assay with ACHN renal. Further, the TGI in the assay on SK-MEL-5 melanoma, with SN12C renal, with HCT-116 colon, in the assay with NCI-H460 lung, in the assay with HOP-92 NSCLC and in the assay with UACC-257 melanoma was greater than 100 µM throughout. The TGI in the assay on MCF7 breast is greater than 100 µM; with CCRF-CEM leukemia it was 0.016 µM; in the assay with ACHN renal it was greater than 100 µM.
As for `CC(C)(C)c1ccc(OCCOCCOc2ccc(C(C)(C)C)cc2S(=O)(=O)Nc2ccc([N+](=O)[O-])cc2)c(S(=O)(=O)Nc2ccc([N+](=O)[O-])cc2)c1`, the TGI was greater than 100 µM with SK-MEL-5 melanoma; greater than 100 µM with SN12C renal; greater than 100 µM in the assay with HCT-116 colon; greater than 100 µM with HL-60(TB) leukemia; greater than 100 µM with NCI-H460 lung; 72.3 µM with HOP-92 NSCLC. Moreover, the TGI in the assay with UACC-257 melanoma, with CCRF-CEM leukemia and in the assay on ACHN renal was greater than 100 µM throughout.
Regarding `CC1=C(O)/C(=C/C(C)CCC/C(C)=C/C=C/C(C)CCCc2ccoc2)OC1=O` (stereo unspecified), the TGI in the assay on SN12C renal was greater than 100 µM; with HL-60(TB) leukemia it was 63.8 µM; in the assay with NCI-H460 lung, greater than 100 µM; with UACC-257 melanoma it was 66.3 µM; in the assay on ACHN renal, 50.9 µM.
On to `Cc1cccc2c1CCC21OC(=O)c2c1ccc1ccccc21` (stereo unspecified), for which the TGI in the assay on SK-MEL-5 melanoma was 46 µM; in the assay on SN12C renal it was greater than 100 µM; with HCT-116 colon, greater than 100 µM; in the assay with HL-60(TB) leukemia, 66 µM; with NCI-H460 lung, greater than 100 µM; in the assay on UACC-257 melanoma, 85.5 µM. Besides, the TGI in the assay with CCRF-CEM leukemia and in the assay on ACHN renal was greater than 100 µM throughout.
